Measured values taken from patent US9499538B2, “Estrogen receptor modulators and uses thereof” (Seragon Pharmaceuticals, Inc., priority 2012, dated 2016).

Key:
ER-α in MCF-7 cells = molecular target: T1, ER-α in MCF-7 cells (Homo sapiens, UniProt P03372); assay: Breast Cancer Cell ER-α In Cell Western Assay (SP1); format: cell-based; conditions: 4 or 24 hr post compound addition; for Emax: MCF7, SP1 antibody, read-out: ER-α In Cell Western Assay (SP1) Max Response; for DC50: SP1 antibody, read-out: ER-α In Cell Western Assay (SP1) IC50
T1 construct: endogenous in cells; host or cells: MCF-7
T1 sequence (P03372 1-595): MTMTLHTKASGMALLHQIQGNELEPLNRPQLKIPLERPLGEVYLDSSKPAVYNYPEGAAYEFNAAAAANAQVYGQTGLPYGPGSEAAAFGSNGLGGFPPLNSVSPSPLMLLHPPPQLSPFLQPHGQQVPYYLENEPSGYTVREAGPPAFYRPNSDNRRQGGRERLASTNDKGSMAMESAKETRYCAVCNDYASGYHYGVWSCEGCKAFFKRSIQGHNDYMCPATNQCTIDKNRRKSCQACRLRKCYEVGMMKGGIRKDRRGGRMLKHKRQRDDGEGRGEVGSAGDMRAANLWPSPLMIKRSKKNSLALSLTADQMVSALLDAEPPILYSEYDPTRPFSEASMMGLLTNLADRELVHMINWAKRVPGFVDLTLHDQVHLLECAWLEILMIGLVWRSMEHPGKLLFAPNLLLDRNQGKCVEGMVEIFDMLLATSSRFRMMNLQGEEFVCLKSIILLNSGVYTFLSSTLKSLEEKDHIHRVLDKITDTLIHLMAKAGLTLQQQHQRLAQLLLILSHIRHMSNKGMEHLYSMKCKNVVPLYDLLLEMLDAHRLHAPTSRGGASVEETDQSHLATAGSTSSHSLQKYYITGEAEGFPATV
How it was run: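 MCF-7 cells in charcoal-stripped FBS medium, treated with 11-point semilog dilutions (0.3–0.000003 μM final) for 4 or 24 h. Fixed cells immunostained with SP1 antibody (800 nm) and DRAQ5 DNA (700 nm); ER/DNA ratio expressed as % of untreated cells.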

MCF-7 cells = assay: Breast Cancer Cell Viability Assays (MCF-7, CellTiter-Glo); format: cell-based; conditions: 5 days' compound exposure; for IC50: Homo sapiens, MCF7, 120 h
How it was run: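 MCF-7 cells (320/well, RPMI with 10% FBS) exposed for 5 days to an eleven-point semilog series, 0.3–0.000003 μM final. Viability read by CellTiter-Glo luminescence, expressed as background-corrected percent of untreated cells.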

Compound	Emax (ER-α in MCF-7 cells) [%]	DC50 (ER-α in MCF-7 cells) [nM]	IC50 (MCF-7 cells) [nM]	MCF7 Viability Assay Max Response (MCF-7 cells)
N#Cc1c(/C(=C(/c2ccc(F)cc2Cl)C2CC2)c2ccc(/C=C/C(=O)O)cc2)ccc2[nH]nc(F)c12 [Example 222, (E)-3-(4-((E)-2-(2-Chloro-4-fluorophenyl)-1-(4-cyano-3-fluoro-1H-indazol-5-yl)-2-cyclopropylvinyl)phenyl)acrylic acid]	≥ 40	≤ 100	≤ 100	++ (++ = a single % value ≧ 40%)
N#Cc1c(/C(=C(/c2ccc(F)cc2Cl)C2CCC2)c2ccc(/C=C/C(=O)O)cc2)ccc2[nH]nc(F)c12 [Example 225, (E)-3-(4-((E)-2-(2-Chloro-4-fluorophenyl)-1-(4-cyano-3-fluoro-1H-indazol-5-yl)-2-cyclobutylvinyl)phenyl)acrylic acid]	≥ 40	≤ 100	≤ 100	++ (++ = a single % value ≧ 40%)
CCOc1ccc(/C(=C(\c2ccc(/C=C/C(=O)O)cc2)c2ccc3[nH]nc(F)c3c2)C2CCC2)c(Cl)c1 [Example 230, (E)-3-(4-((E)-2-(2-Chloro-4-ethoxyphenyl)-2-cyclobutyl-1-(3-fluoro-1H-indazol-5-yl)vinyl)phenyl)acrylic acid]	≥ 40	≤ 100	≤ 100	++ (++ = a single % value ≧ 40%)
COc1ccc(/C(=C(\c2ccc(/C=C/C(=O)O)cc2)c2ccc3scnc3c2)C2CCC2)c(Cl)c1 [Example 232, (E)-3-(4-((E)-1-(Benzo[d]thiazol-5-yl)-2-(2-chloro-4-methoxyphenyl)-2-cyclobutylvinyl)phenyl)acrylic acid]	≥ 40	≤ 100	≤ 100	++ (++ = a single % value ≧ 40%)
O=C(O)/C=C/c1ccc(/C(=C(\c2cccc(F)c2Cl)C2CCC2)c2ccc3scnc3c2)cc1 [Example 235, (E)-3-(4-((E)-1-(Benzo[d]thiazol-5-yl)-2-(2-chloro-3-fluorophenyl)-2-cyclobutylvinyl)phenyl)acrylic acid]	≥ 40	≤ 100	≤ 100	++ (++ = a single % value ≧ 40%)
Cc1cc(CO)ccc1/C(=C(\c1ccc(/C=C/C(=O)O)cc1)c1ccc2scnc2c1)C1CCC1 [Example 237, (E)-3-(4-((E)-1-(Benzo[d]thiazol-5-yl)-2-cyclobutyl-2-(4-(hydroxymethyl)-2-methylphenyl)vinyl)phenyl)acrylic acid]	≥ 40	≤ 100	≤ 100	++ (++ = a single % value ≧ 40%)
Cc1ccccc1/C(=C(\c1ccc(/C=C/C(=O)O)cc1)c1ccc2scnc2c1)C1CCC1 [Example 238, (E)-3-(4-((E)-1-(Benzo[d]thiazol-5-yl)-2-cyclobutyl-2-(o-tolyl)vinyl)phenyl)acrylic acid]	≥ 40	≤ 100	≤ 100	++ (++ = a single % value ≧ 40%)
Cc1cc(F)ccc1/C(=C(\c1ccc(/C=C/C(=O)O)cc1)c1ccc2scnc2c1)C1CCC1 [Example 239, (E)-3-(4-((E)-1-(Benzo[d]thiazol-5-yl)-2-cyclobutyl-2-(4-fluoro-2-methylphenyl)vinyl)phenyl)acrylic acid]	≥ 40	≤ 100	≤ 100	++ (++ = a single % value ≧ 40%)
COc1ccc(/C(=C(\c2ccc(/C=C/C(=O)O)cc2)c2ccc3scnc3c2)C2CCC2)c(C)c1 [Example 240, (E)-3-(4-((E)-1-(Benzo[d]thiazol-5-yl)-2-cyclobutyl-2-(4-methoxy-2-methylphenyl)vinyl)phenyl)acrylic acid]	≥ 40	≤ 100	≤ 100	++ (++ = a single % value ≧ 40%)

The next lines start with results.

Emax (ER-α in MCF-7 cells) [%]	DC50 (ER-α in MCF-7 cells) [nM]	IC50 (MCF-7 cells) [nM]	Compound	MCF7 Viability Assay Max Response (MCF-7 cells)
≥ 40	≤ 100	≤ 100	O=C(O)/C=C/c1ccc(/C(=C(\c2ccc(F)cc2C(F)(F)F)C2CCC2)c2ccc3nccn3c2)cc1 [Example 221, (E)-3-(4-((E)-2-Cyclobutyl-2-(4-fluoro-2-(trifluoromethyl)phenyl)-1-(imidazo[1,2-a]pyridin-6-yl)vinyl)phenyl)acrylic acid]	++ (++ = a single % value ≧ 40%)
≥ 40	≤ 100	≤ 100	O=C(O)/C=C/c1ccc(/C(=C(\c2ccc(Cl)cc2C(F)(F)F)C2CCC2)c2ccc3nccn3c2)cc1 [Example 223, (E)-3-(4-((E)-2-(4-Chloro-2-(trifluoromethyl)phenyl)-2-cyclobutyl-1-(imidazo[1,2-a]pyridin-6-yl)vinyl)phenyl)acrylic acid]	++ (++ = a single % value ≧ 40%)
≥ 40	≤ 100	≤ 100	N#Cc1c(/C(=C(/c2ccc(F)cc2Cl)C2CCC2)c2ccc(/C=C/C(=O)O)cc2)ccc2nccn12 [Example 224, (E)-3-(4-((E)-2-(2-Chloro-4-fluorophenyl)-1-(5-cyanoimidazo[1,2-a]pyridin-6-yl)-2-cyclobutylvinyl)phenyl)acrylic acid]	++ (++ = a single % value ≧ 40%)
≥ 40	≤ 100	≤ 100	N#Cc1ccc(/C(=C(\c2ccc(/C=C/C(=O)O)cc2)c2ccc3nccn3c2)C2CCC2)c(Cl)c1 [Example 226, (E)-3-(4-((E)-2-(2-Chloro-4-cyanophenyl)-2-cyclobutyl-1-(imidazo[1,2-a]pyridin-6-yl)vinyl)phenyl)acrylic acid]	++ (++ = a single % value ≧ 40%)
≥ 40	≤ 100	≤ 100	N#Cc1cc(Cl)ccc1/C(=C(\c1ccc(/C=C/C(=O)O)cc1)c1ccc2nccn2c1)C1CCC1 [Example 227, (E)-3-(4-((E)-2-(4-Chloro-2-cyanophenyl)-2-cyclobutyl-1-(imidazo[1,2-a]pyridin-6-yl)vinyl)phenyl)acrylic acid]	++ (++ = a single % value ≧ 40%)
≥ 40	≤ 100	≤ 100	COc1ccc(/C(=C(\c2ccc(/C=C/C(=O)O)cc2)c2ccc3nccn3c2)C2CCC2)c(Cl)c1 [Example 228, (E)-3-(4-((E)-2-(2-Chloro-4-methoxyphenyl)-2-cyclobutyl-1-(imidazo[1,2-a]pyridin-6-yl)vinyl)phenyl)acrylic acid]	++ (++ = a single % value ≧ 40%)
≥ 40	≤ 100	≤ 100	COc1ccc(/C(=C(\c2ccc(/C=C/C(=O)O)cc2)c2ccc3nccn3c2)C2CCC2)c(C)c1 [Example 229, (E)-3-(4-((E)-2-Cyclobutyl-1-(imidazo[1,2-a]pyridin-6-yl)-2-(4-methoxy-2-methylphenyl)vinyl)phenyl)acrylic acid]	++ (++ = a single % value ≧ 40%)
≥ 40	≤ 100	≤ 100	O=C(O)/C=C/c1ccc(/C(=C(\c2ccc(C(F)(F)F)cc2Cl)C2CCC2)c2ccc3nccn3c2)cc1 [Example 231, (E)-3-(4-((E)-2-(2-Chloro-4-(trifluoromethyl)phenyl)-2-cyclobutyl-1-(imidazo[1,2-a]pyridin-6-yl)vinyl)phenyl)acrylic acid]	++ (++ = a single % value ≧ 40%)
≥ 40	≤ 100	≤ 100	O=C(O)/C=C/c1ccc(/C(=C(\c2ccc(CO)cc2Cl)C2CCC2)c2ccc3scnc3c2)cc1 [Example 233, (E)-3-(4-((E)-1-(Benzo[d]thiazol-5-yl)-2-(2-chloro-4-(hydroxymethyl)phenyl)-2-cyclobutylvinyl)phenyl)acrylic acid]	++ (++ = a single % value ≧ 40%)
≥ 40	≤ 100	≤ 100	O=C(O)/C=C/c1ccc(/C(=C(\c2ccccc2Cl)C2CCC2)c2ccc3scnc3c2)cc1 [Example 234, (E)-3-(4-((E)-1-(Benzo[d]thiazol-5-yl)-2-(2-chlorophenyl)-2-cyclobutylvinyl)phenyl)acrylic acid]	++ (++ = a single % value ≧ 40%)
≥ 40	≤ 100	≤ 100	O=C(O)/C=C/c1ccc(/C(=C(\c2cc(F)ccc2Cl)C2CCC2)c2ccc3scnc3c2)cc1 [Example 236, (E)-3-(4-((E)-1-(Benzo[d]thiazol-5-yl)-2-(2-chloro-5-fluorophenyl)-2-cyclobutylvinyl)phenyl)acrylic acid]	++ (++ = a single % value ≧ 40%)
